Assay results as given in patent US20260184697A1, “EZH1/2 INHIBITOR, PREPARATION THEREOF, AND USE THEREOF IN ANTI-TUMOR THERAPY” (JIANGSU TASLY DIYI PHARMACEUTICAL CO., LTD., priority 2022, published 2026).

Assays:
EZH2/SUZ/EED = molecular target: T1, EZH2/SUZ/EED (Homo sapiens, UniProt O75530+Q15022+Q15910); assay: Inhibitory effect on EZH2 by the MTase-Glo method (Test Example 1); type: biochemical; details: EZH2/SUZ/EED 6.25 nM, H3 peptide 10 μM, SAM 3 μM, 30° C. 3 h, read-out: Test Example 1 WT EZH2 IC50
T1 construct: purchased BPS 51003
Experimental: (§1) The compound was dissolved in DMSO, and the compound was serially diluted using ECHO665 and transferred to a 384-well reaction plate (Corning, 3824). A sample containing only DMSO was added as a positive control (maximum signal control) and a negative control (minimum signal control), while ensuring that the final DMSO content in each reaction well was 0.5%. The protein was configured in reaction buffer (50 mM Bicine, 0.01% Triton X-100, 1 mM DTT, 0.01% BSA, pH 7.6), such that the final reaction concentrations of EZH2/SUZ/EED (BPS, 51003) protein solution and EZH1/SUZ/EED (BPS, 51006) were 6.25 nM and 25 nM, respectively. The negative control (minimum signal control) used an equal amount of buffer instead of protein solution. The prepared protein solution was added to the 384-well reaction plate and pre-incubated at room temperature for 15 minutes. The mixture of the substrate H3 peptide fragment (custom-synthesized by GenScript, biotinylated Histone H3(21-44) peptide ([…]-GG-K(Biotin)-OH)) prepared in the reaction buffer and SAM (Promega, V7601) was added into the 384-well plate, such that the final reaction concentration of H3 peptide fragment was 10 μM, and the final concentration of SAM was 3 μM. The mixture was centrifuged at 1000 rpm for 1 min. The 384-well reaction plate was placed in a constant temperature shaker and incubate at 30° C. for 3 h at a speed of 300 rpm. Then the detection reagent was added according to the experimental process of the kit MTase-Glo (Promega, V7601) and incubated.
(§2) After incubation, read with BMG PHERAStar. The luminescence signals obtained by positive control (maximum signal control) and negative control (minimum signal control) were normalized to obtain the inhibition rate of different concentrations of compounds. Then, the IC50 of the compound on the enzyme activity inhibition was calculated by GraphPad Prism 6 with log(inhibitor) vs. response-Variable slope model fitting. The fitting equation is: Y=Bottom+(Top−Bottom)/(1+10^((Log IC50−X)*HillSlope)), wherein Y represents the known percentage remaining enzyme activity, and X represents the known activity after Log compound concentration.

EZH1/SUZ/EED = molecular target: T2, EZH1/SUZ/EED (Homo sapiens, UniProt O75530+Q15022+Q92800); assay: Inhibitory effect on EZH1 by the MTase-Glo method (Test Example 1); type: biochemical; details: EZH1/SUZ/EED 25 nM, H3 peptide 10 μM, SAM 3 μM, 30° C. 3 h, read-out: Test Example 1 WT EZH1 IC50
T2 construct: purchased BPS 51006
Experimental: as §1, §2

[1] = tested on: H3K27Me3 methylation in Karpas-422 cells; assay: H3K27Me3 cell method, inhibition of H3K27Me3 methylation (Test Example 2); type: cell-based, human; details: Homo sapiens, KARPAS-422, 72 h, Karpas-422 cells, 3 days incubation, HTRF signal; read-out: Test Example 2 H3K27Me3 inhibition (Karpas-422) IC50
Experimental: Karpas-422 (Nanjing Kebai, CBP60629) cells were seeded in a 96-well plate (Corning, 3894) at 15,000 cells per well in culture medium (80% 1640 (Hyclone, SH30809.01)+20% FBS (Corning, 35-081-CV)), and then added with different concentrations of compounds for treatment. The cell growth group without adding compounds is used as a positive control (maximum signal control), and the medium is used as a negative control (minimum signal control), while ensuring that in each reaction well, the final concentration of DMSO was 0.2%. Compounds and cells were incubated for 3 days in a cell culture incubator (37° C., 5% CO2). The 96-well plate was taken out from the cell culture incubator and equilibrated to room temperature, and 25 ul of cell suspension was taken out into a 384-well plate. The CCK8 (Beiyuntian, C0040) detection reagent was added, incubated at 37° C. for 1 h, and […] was detected. The rest of the cells followed the procedure of the kit EPIgeneous H3K27Me3 cellular kit (Cisbio, 62KC3PAE) to carry out experiment, read HTRF signal with BMG PHERAStar. […] By GraphPad Prism 6 with log(inhibitor)vs.response-Variable slope model simulation, the IC50 of the compound on cell activity inhibition was calculated. The fitting equation is: Y=Bottom+(Top−Bottom)/(1+10^((Log IC50−X)*HillSlope)), wherein Y represents the inhibition rate, and X represents the known concentration of the compound after Log.

T1 sequence (Q15910 2-746 limits assumed): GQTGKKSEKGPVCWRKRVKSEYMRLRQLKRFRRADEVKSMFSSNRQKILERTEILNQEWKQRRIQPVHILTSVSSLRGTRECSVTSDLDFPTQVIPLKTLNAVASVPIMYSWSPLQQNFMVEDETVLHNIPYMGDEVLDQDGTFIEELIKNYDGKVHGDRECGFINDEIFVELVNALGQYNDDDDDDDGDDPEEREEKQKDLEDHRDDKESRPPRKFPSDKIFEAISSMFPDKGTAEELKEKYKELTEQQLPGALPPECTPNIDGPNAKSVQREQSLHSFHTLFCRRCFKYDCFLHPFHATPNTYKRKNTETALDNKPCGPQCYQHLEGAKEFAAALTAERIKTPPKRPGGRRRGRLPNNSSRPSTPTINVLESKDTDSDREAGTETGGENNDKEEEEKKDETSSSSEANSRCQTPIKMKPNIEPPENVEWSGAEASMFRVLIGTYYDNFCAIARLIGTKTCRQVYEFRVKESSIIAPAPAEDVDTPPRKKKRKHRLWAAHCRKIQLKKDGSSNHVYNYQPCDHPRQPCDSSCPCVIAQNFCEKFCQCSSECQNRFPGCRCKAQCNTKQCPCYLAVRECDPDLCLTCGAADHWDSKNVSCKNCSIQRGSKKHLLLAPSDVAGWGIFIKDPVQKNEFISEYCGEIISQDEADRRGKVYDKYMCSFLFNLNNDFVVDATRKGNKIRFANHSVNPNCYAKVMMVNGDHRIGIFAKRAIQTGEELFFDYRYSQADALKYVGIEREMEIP
T1 sequence (Q15022 2-739 partner limits assumed): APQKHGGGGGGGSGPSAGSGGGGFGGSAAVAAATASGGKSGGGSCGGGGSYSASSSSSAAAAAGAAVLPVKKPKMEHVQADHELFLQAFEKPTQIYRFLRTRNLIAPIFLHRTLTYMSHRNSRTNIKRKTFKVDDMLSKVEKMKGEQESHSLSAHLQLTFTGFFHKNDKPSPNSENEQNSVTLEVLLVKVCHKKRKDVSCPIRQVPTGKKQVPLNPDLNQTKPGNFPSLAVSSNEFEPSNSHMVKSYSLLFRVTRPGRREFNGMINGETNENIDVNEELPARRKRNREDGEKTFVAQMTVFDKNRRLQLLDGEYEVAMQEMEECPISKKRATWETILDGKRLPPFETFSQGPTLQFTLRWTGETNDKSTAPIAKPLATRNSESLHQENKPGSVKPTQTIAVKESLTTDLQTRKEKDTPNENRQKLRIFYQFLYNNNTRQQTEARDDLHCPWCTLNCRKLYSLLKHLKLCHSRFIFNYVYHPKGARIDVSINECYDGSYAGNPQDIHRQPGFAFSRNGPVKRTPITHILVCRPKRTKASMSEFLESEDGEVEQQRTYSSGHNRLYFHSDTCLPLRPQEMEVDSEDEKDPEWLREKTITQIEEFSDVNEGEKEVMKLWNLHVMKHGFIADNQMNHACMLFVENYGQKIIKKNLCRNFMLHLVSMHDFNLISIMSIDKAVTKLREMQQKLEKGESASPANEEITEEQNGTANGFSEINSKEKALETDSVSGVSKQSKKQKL
T1 sequence (O75530 2-441 partner limits assumed): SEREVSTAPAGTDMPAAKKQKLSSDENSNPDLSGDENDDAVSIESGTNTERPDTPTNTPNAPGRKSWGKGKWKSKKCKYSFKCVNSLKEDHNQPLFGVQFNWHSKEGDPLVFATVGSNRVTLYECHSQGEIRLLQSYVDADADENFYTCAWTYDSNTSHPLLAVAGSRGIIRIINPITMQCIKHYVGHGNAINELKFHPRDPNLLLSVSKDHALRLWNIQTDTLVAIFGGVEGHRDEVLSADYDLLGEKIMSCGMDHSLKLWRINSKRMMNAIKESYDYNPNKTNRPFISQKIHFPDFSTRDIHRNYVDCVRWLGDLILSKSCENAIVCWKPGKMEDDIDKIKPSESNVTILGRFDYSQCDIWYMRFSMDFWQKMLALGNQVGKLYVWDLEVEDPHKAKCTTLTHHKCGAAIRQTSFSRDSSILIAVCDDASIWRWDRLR
T2 sequence (Q92800 2-747 limits assumed): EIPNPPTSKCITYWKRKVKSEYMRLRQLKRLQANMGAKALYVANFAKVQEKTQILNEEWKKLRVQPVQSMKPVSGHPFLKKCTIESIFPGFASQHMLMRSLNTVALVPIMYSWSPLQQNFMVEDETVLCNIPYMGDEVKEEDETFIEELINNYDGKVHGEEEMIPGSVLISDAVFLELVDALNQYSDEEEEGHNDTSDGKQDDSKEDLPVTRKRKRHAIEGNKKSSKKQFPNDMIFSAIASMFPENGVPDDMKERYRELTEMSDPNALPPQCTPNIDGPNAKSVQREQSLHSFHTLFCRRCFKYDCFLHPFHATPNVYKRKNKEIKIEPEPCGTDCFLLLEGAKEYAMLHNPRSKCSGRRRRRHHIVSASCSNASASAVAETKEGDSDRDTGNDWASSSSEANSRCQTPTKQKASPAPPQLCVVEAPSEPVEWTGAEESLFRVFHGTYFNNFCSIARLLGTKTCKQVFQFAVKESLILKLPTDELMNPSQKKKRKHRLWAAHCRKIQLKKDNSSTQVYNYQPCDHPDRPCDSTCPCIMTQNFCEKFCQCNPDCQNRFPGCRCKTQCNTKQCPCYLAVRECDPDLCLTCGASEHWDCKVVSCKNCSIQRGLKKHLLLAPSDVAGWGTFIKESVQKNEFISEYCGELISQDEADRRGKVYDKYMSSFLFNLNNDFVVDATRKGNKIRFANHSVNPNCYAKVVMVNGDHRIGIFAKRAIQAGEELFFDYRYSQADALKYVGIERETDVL
T2 sequence (Q15022 2-739 partner limits assumed): as the sequence (Q15022 2-739 partner limits assumed) above
T2 sequence (O75530 2-441 partner limits assumed): as the sequence (O75530 2-441 partner limits assumed) above

SMILES | IC50 (EZH2/SUZ/EED) [µM] | IC50 (EZH1/SUZ/EED) [µM] | IC50 [1] [µM]
COC1CN([C@H]2CC[C@H]([C@H]3COc4c(C#N)cc(C(=O)NCc5c(SC)cc(C)[nH]c5=O)c(C)c4O3)CC2)C1 [Compound 154] | 0.0042 | 0.03 | –
[2H]C([2H])([2H])Sc1cc(C)[nH]c(=O)c1CNC(=O)c1cc(Cl)c2c(c1C)O[C@@H](C1CCC(N3CC(OC)C3)CC1)CO2 (stereo partly shown) [Compound 177] | 0.0015 | 0.0023 | –
CSc1cc(C)[nH]c(=O)c1CN(C)C(=O)c1cc(Cl)c2c(c1C)O[C@@H]([C@H]1CC[C@@H](N(C)C)CC1)CO2 [Compound 128] | 0.0095 | – | 0.0432
COc1cc(C)[nH]c(=O)c1CNC(=O)c1cc(Cl)c2c(c1C)O[C@@H]([C@H]1CC[C@@H](N3CC4(CC4)C3)CC1)CO2 [Compound 111] | 0.0134 | 0.0273 | –
COc1cc(C)[nH]c(=O)c1CNC(=O)c1cc(Cl)c2c(c1Cl)O[C@@H]([C@H]1CC[C@@H](N3CC(OC)C3)CC1)CO2 [Compound 151] | – | – | 0.0132
COc1cc(C)[nH]c(=O)c1CNC(=O)c1cc(Cl)c2c(c1C)O[C@@H]([C@H]1CC[C@@H](N3CC4C(C3)C4OC)CC1)CO2 (stereo partly shown) [Compound 115] | 0.0049 | 0.0748 | –
Cc1cc(C)c(CNC(=O)c2cc(Cl)c3c(c2C)OC(C2CCC(NC4CC(F)(F)C4)CC2)CO3)c(=O)[nH]1 (single isomer, unassigned) [Compound 66] | 0.0244 | 0.687 | –
CO[C@@H]1CCN([C@H]2CC[C@@H]([C@H]3COc4c(Cl)cc(C(=O)NCc5c(SC)cc(C)[nH]c5=O)c(C)c4O3)CC2)C1 [Compound 41] | 0.0043 | 0.0039 | –
CON=C1CCC([C@H]2COc3c(Cl)cc(C(=O)NCc4c(C)cc(C)[nH]c4=O)c(C)c3O2)CC1 (stereo partly shown) [Compound 93] | 0.006 | 0.132 | –
Cc1cc(C)c(CNC(=O)c2cc(Cl)c3c(c2C)O[C@@H](C2CCN(C4COC4)CC2)CO3)c(=O)[nH]1 [Compound 88] | 0.0295 | – | 0.31
COC1CC2CN([C@H]3CC[C@H]([C@H]4COc5c(Cl)cc(C(=O)NCc6c(SC)cc(C)[nH]c6=O)c(C)c5O4)CC3)CC2C1 (stereo partly shown) [Compound 50] | – | 0.0118 | 0.0238
COc1c(Cl)c2c(c(C)c1C(=O)NCc1c(C)cc(C)[nH]c1=O)O[C@@H](C1CCC(N(C)C)CC1)CO2 (mixture of isomers) [Compound 133] | 0.0166 | 0.584 | –
COc1cc(C)[nH]c(=O)c1CNC(=O)c1cc(Cl)c2c(c1C)O[C@@H]([C@H]1CC[C@@H](N3CC4COCC4C3)CC1)CO2 (stereo partly shown) [Compound 95] | 0.0116 | 0.227 | –
COc1cc(C)[nH]c(=O)c1CNC(=O)c1cc(Cl)c2c(c1C)O[C@@H]([C@H]1CC[C@@H](N3CC4CC4C3)CC1)CO2 (stereo partly shown) [Compound 113] | 0.0094 | 0.0912 | –
Cc1cc(C)c(CNC(=O)c2cc(Cl)c3c(c2C)O[C@@H](C2CCN(CC4CC4)CC2)CO3)c(=O)[nH]1 [Compound 90] | 0.0186 | 0.945 | –
COc1cc(C)[nH]c(=O)c1CNC(=O)c1cc(Cl)c2c(c1C)O[C@@H]([C@H]1CC[C@H](N3CC4COCC4C3)CC1)CO2 (stereo partly shown) [Compound 96] | 0.007 | 0.167 | –
CO[C@H]1CCN([C@H]2CC[C@H]([C@H]3COc4c(Cl)cc(C(=O)NCc5c(SC)cc(C)[nH]c5=O)c(C)c4O3)CC2)C1 [Compound 40] | – | – | 0.0083
COC1CN([C@H]2CC[C@H]([C@H]3COc4c(Cl)cc(C(=O)NCc5c(SC)cc(C)[nH]c5=O)c(Cl)c4O3)CC2)C1 [Compound 150] | 0.0116 | 0.0222 | –
